Assay results from article PMC4710522, “A Novel Triazolopyridine-Based Spleen Tyrosine Kinase Inhibitor That Arrests Joint Inflammation” (PLoS ONE, 2016).
Read-outs that look alike come from different tables or passages of the source.

What was measured:
PKC-gamma_h = target: T1, PKC-gamma_h (Homo sapiens, UniProt P05129); assay: SelectScreen kinase assay; format: biochemical; conditions: KM ATP
T1 construct: purchased Life Technologies (Invitrogen) SelectScreen, Z'-LYTE / Adapta
Method: (§1) Syk kinase mode of inhibition studies, including parameters described in Fig 1, were conducted on the LC3000 platform by Caliper Life Sciences (Hopkinton, MA) according to standard protocols developed by the supplier. […] Non-kinase enzyme assays and GPCR, ion channel, and transporter binding assays were run by CEREP (France). Non-GLP manual patch clamp hERG assays were run by ChanTest (Cleveland, Ohio). Vivid® Assay kits (Life Technologies) were used to measure the cytochrome P450 inhibition of the compound against CYP3A, CYP2C9, CYP2C19, CYP2D6, and CYP1A2, as described.
(§2) Kinase activity was measured using either the Z’-Lyte® or the Adapta® protocols as part of the SelectScreen™ profiling service offered at Life Technologies (Grand Island, NY). For the single point measurements (Part A), CC-509 was kept constant at 3 µM while ATP concentrations [ATP] used were at the KM for ATP (KM ATP) for that specific enyzme, at 10 or 100 µM ATP (10 ATP or 100 ATP, respectively), as indicated. Values expressed as percent control (% control) relative to DMSO-only wells (uninhibited, 100%).
(§3) Kinase activity was measured using either the Z’-Lyte® or the Adapta® protocols as part of the SelectScreen™ profiling service offered at Life Technologies (Grand Island, NY). […] Values expressed as percent control (% control) relative to DMSO-only wells (uninhibited, 100%).

MAP3K8_h = target: T2, MAP3K8_h (Homo sapiens, UniProt P41279); assay: SelectScreen kinase assay; format: biochemical; conditions: 100 µM ATP
T2 construct: purchased Life Technologies (Invitrogen) SelectScreen, Z'-LYTE / Adapta
Method: as §1, §2, §3

GRK6_h = target: T3, GRK6_h (Homo sapiens, UniProt P43250); assay: SelectScreen kinase assay; format: biochemical; conditions: KM ATP
T3 construct: purchased Life Technologies (Invitrogen) SelectScreen, Z'-LYTE / Adapta
Method: as §1, §2, §3

PKC-betaII_h = target: T4, PKC-betaII_h (Homo sapiens, UniProt P05771); assay: SelectScreen kinase assay; format: biochemical; conditions: KM ATP
T4 construct: purchased Life Technologies (Invitrogen) SelectScreen, Z'-LYTE / Adapta
Method: as §1, §2, §3

[1] = system: FcγR-induced TNFα production in primary human macrophage; assay: primary human macrophage assay, anti-IgG stimulated TNF secretion; format: cell-based
Method: Mobilized CD14-positive monocytes were plated in 96-well flat bottom plates in RPMI media supplemented with 100 ng/ml GM-CSF for 5 days. The plates were preincubated with CC-509 at indicated concentrations for 30 minutes. Biotinylated anti-IgG and streptavidin at 10 μg/ml final concentrations were thoroughly mixed, added to appropriate wells on the cell plate, and plate placed back in tissue culture incubator 8 hours. Following incubation, supernatants were collected and processed for TNFα Mesoscale single-plex cytokine assay as described by manufacturer (Mesoscale, Gaithersberg, MD). Briefly, the plates were incubated with sample or calibrator for 2 hours on an orbital shaker at room temperature. The detection antibody was added to all wells, the plate incubated for 2 hours at room temperature on an orbital shaker, and washed three times. Diluted Mesoscale detection solution was added to all wells and the plates were read on the Sector Imager instrument (Mesoscale, Gaithersberg, MD) plate reader.
For the TEL-Syk assay, the intensity values for the 700 and 800 channel were exported as text files in ActivityBase (IDBS, Guildford, UK) to derive the ratios that reflect kinase activity. For LAD2 experiments, enzyme activity values were exported as text files into ActivityBase to calculate “percent release” according to the formula: 100* supernatant OD405/ (supernatant OD405 + (pellet OD405*pellet dilution factor)). For the basophil and B-cells assays, flow cytometry data was exported from the FACS Array and processed using FloJo software package (TreeStar, Inc., Ashland, Oregon). For the JAK2 HEL and Ramos NFAT β-lactamase assays, the fluorescence values obtained at 460 nm and 530 nm were exported into ActivityBase to calculate response ratios. […] Evans blue dye extravasation was expressed as mean ± SEM and % inhibition for the test article groups was normalized to the cromolyn positive control. […] The mean data from each group was plotted and either the AUC(day 11–18) or % inhibition on day 18 was calculated. Data is expressed as mean ± SEM of each group with n = 6–12. […]

panel of 256 kinases = assay: commercial panel of 256 kinases (SelectScreen), overall kinome selectivity; format: biochemical; conditions: for number of kinases inhibited by >80% of 256 kinases: 3 μM
Method: as §1, §2, §3

[2] = system: basophil activation in human whole blood; assay: basophil human whole blood assay (CD63); format: cell-based
Method: Assay was conducted according to the protocol for the BasoTest kit provided by supplier (Biocarta, San Diego, CA), with slight modification. Briefly, 100μl of heparinized human whole blood was added to each well of a 24-well deep plate (Microliter Analytical Supplies, Suwanee, GA) and preincubated with CC-509 for 30 minutes in a 37°C water bath. Basophils were stimulated with mite or dust extract (included in kit), or anti-IgE (diluted 1:10,000) for 20 minutes in a 37°C water bath and then on ice for 5 minutes. Cells were incubated in the FcεR receptor and CD63 antibody staining solution (included in kit) for 20 minutes on ice followed by agitation in a fixative/ red blood cell lysis buffer (included in kit) for 10 minutes at room temperature. Cells were washed twice with Basosalt solution (included in kit) and the final cell suspensions was transferred to U-bottom 96-well plates (BD Falcon, San Diego, CA) for analysis by flow cytometry on the FACSArray Bioanalyzer (BD Biosciences, San Jose, CA). Standard gating methods were used to identify basophils and to measure the mean intensity of CD63 fluorescence. FCS files were exported and analyzed as described in the Data Analysis section.
For the TEL-Syk assay, the intensity values for the 700 and 800 channel were exported as text files in ActivityBase (IDBS, Guildford, UK) to derive the ratios that reflect kinase activity. For LAD2 experiments, enzyme activity values were exported as text files into ActivityBase to calculate “percent release” according to the formula: 100* supernatant OD405/ (supernatant OD405 + (pellet OD405*pellet dilution factor)). For the basophil and B-cells assays, flow cytometry data was exported from the FACS Array and processed using FloJo software package (TreeStar, Inc., Ashland, Oregon). For the JAK2 HEL and Ramos NFAT β-lactamase assays, the fluorescence values obtained at 460 nm and 530 nm were exported into ActivityBase to calculate response ratios. For the neutrophil, macrophage, KDR, and JAK1/3 assays, raw values were exported into ActivityBase to calculate percent inhibition. All IC50 calculations were generated using XLfit (IDBS, Guildford, UK) algorithm 205 within Excel. For PCA, the OD from the saline injected site was subtracted from the OD from the anti-DNP IgE injected site. Evans blue dye extravasation was expressed as mean ± SEM and % inhibition for the test article groups was normalized to the cromolyn positive control. For the CIA model paw measurements (left and right ankle diameter) were taken for each individual animal and averaged. The mean data from each group was plotted and either the AUC(day 11–18) or % inhibition on day 18 was calculated. Data is expressed as mean ± SEM of each group with n = 6–12. […]

MH7A cells = assay: MH7A synoviocytes, TNFα-induced IL-6 production; format: cell-based, human
Method: Cells were maintained in culture and assayed as described by supplier. Briefly, MH7A cells were seeded to 6000 cells/ well in 96 well plates 1 day prior to stimulation. Cells were pretreated with compounds for 30 minutes, stimulated with TNFα (2 ng/ml) or IL-1β (0.5 ng/ml) and placed in tissue culture incubator for 16 hours. Supernatants were collected and assayed for cytokines using the Mesoscale Proinflammatory Panel I or Proinflammatory 4-plex according to the manufacturer’s protocol (Mesoscale, Gaithersberg, MD).

T2 sequence (P41279 whole entry): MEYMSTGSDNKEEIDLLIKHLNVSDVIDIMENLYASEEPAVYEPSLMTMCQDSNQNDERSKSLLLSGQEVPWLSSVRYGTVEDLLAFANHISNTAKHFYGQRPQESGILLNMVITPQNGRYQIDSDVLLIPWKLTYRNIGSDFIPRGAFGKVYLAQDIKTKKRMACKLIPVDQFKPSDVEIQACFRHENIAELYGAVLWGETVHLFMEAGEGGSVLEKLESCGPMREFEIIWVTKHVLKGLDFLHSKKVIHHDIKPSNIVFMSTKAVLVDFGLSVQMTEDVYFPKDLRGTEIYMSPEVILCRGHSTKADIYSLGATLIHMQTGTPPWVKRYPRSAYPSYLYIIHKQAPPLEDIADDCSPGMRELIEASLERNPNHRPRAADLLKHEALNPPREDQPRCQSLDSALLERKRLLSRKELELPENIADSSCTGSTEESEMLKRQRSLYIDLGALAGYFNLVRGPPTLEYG
T3 sequence (P43250 whole entry): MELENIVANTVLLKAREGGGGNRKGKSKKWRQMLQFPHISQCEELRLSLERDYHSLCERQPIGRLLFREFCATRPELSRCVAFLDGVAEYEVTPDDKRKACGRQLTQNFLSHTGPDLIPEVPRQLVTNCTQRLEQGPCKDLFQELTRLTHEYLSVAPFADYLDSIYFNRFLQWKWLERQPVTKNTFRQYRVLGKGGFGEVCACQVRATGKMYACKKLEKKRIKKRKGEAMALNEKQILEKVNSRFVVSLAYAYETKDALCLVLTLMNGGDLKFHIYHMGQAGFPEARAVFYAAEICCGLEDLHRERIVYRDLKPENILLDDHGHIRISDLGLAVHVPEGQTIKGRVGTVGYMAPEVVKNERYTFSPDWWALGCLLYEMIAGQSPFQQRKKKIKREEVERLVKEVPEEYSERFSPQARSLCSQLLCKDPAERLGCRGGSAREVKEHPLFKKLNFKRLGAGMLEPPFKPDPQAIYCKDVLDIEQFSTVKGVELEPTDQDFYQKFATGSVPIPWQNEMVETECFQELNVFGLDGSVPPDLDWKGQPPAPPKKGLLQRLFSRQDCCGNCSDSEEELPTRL
T4 sequence (P05771 1-673 isoform P05771-2): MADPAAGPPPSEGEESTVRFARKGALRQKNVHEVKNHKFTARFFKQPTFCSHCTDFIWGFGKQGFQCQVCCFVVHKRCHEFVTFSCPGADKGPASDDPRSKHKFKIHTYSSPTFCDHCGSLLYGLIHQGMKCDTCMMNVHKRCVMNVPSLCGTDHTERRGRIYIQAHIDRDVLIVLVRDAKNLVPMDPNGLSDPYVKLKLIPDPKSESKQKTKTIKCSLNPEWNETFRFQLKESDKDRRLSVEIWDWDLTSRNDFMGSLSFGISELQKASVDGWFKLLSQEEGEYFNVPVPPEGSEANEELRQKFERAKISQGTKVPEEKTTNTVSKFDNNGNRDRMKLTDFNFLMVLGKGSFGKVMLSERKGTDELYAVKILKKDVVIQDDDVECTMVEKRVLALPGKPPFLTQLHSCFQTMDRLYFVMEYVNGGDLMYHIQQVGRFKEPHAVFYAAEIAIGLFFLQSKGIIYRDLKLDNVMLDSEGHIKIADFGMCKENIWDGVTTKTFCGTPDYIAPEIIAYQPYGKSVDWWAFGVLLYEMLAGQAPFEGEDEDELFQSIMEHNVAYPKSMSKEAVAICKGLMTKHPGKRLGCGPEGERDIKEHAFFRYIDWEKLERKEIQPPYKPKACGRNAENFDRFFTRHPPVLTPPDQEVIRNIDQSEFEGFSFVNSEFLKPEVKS

Structure (SMILES)	remaining activity at 3 µM (PKC-gamma_h; read-out: % control) [%]	remaining activity at 3 µM (MAP3K8_h; read-out: % control) [%]	remaining activity at 3 µM (GRK6_h; read-out: % control) [%]	remaining activity at 3 µM (PKC-betaII_h; read-out: % control) [%]	IC50 ([1]; Homo sapiens, Macrophage, mean ± SD, minimum n = 3, read-out: IC50, TNFα production induced by FcγR cross-linking) [µM]	IC50 ([1]; Homo sapiens, Macrophage FcγR, curve shown in figure, read-out: IC50 printed in Fig 3A panel) [µM]	number of kinases inhibited by >80% of 256 kinases (panel of 256 kinases)	Gini score (panel of 256 kinases; calculated from activity in the kinase panel at 3 μM)	IC50 ([2]; Homo sapiens, HWB Basophils FcεR, curve shown in figure, read-out: IC50 printed in Fig 3D panel) [µM]	FcεR-independent basophil activation ([2]; N-formyl-L-methionyl-L-leucyl-L-phenylalanine stimulation, data not shown)	IC50 ([2]; human whole blood, mean ± SD, minimum n = 3, read-out: IC50, FcεR-dependent basophil activation (CD63)) [µM]	IC50, TNFα-induced IL-6 production (MH7A cells)	% control (PKC-gamma_h; 3 µM) [%]	% control (MAP3K8_h; 3 µM) [%]	% control (GRK6_h; 3 µM) [%]	% control (PKC-betaII_h; 3 µM) [%]	IC50 ([1]; mean ± SD, minimum n = 3, read-out: IC50, TNFα production induced by FcγR cross-linking) [µM]	IC50, FcεR-dependent basophil activation (CD63) ([2]; human whole blood, mean ± SD, minimum n = 3)	IC50 (MH7A cells) [µM]
c1cc(CC2CCOCC2)n2nc(Nc3ccc4c(NC5CCOCC5)n[nH]c4c3)nc2c1 [CC-509, [3-(2H-3,4,5,6-tetrahydropyran-4-ylamino)(1H-indazol-6-yl)][5-(2H-3,4,5,6-tetrahydropyran-4-ylmethyl)(2H-1,2,4-triazolo[1,5-a]pyridin-2-yl)]amine]	45	79	92	43	0.17 ± 0.12	0.11	27	0.53	1.61	not affected	1.52 ± 1.05	did not inhibit	–	–	–	–	–	–	–
COc1cc(Nc2ncc(F)c(Nc3ccc4c(n3)NC(=O)C(C)(C)O4)n2)cc(OC)c1OC [R406, reference compound]	–	–	–	–	–	–	75	–	–	–	–	–	16	52	100	19	0.29 ± 0.16	not active	1.04 ± 0.13
